Measured values taken from ChEMBL document CHEMBL1201862, “PubChem BioAssay data set” (2004).
Activity calls are given as the source filed them.

Columns and labels:
Estrogen receptor beta [1] = biological target: T1, Estrogen receptor beta (Homo sapiens, UniProt Q92731); experiment: blockers of SRC-3 recruitment to ERβ – biochemical, ELISA, streptavidin-HRP readout, orthogonal assay, confirmation (AID 1060)
NADPH oxidase 1 [2] = biological target: T2, NADPH oxidase 1 (Homo sapiens, UniProt Q9Y5S8); type: functional, cell-based
T2 sequence (Q9Y5S8 whole entry): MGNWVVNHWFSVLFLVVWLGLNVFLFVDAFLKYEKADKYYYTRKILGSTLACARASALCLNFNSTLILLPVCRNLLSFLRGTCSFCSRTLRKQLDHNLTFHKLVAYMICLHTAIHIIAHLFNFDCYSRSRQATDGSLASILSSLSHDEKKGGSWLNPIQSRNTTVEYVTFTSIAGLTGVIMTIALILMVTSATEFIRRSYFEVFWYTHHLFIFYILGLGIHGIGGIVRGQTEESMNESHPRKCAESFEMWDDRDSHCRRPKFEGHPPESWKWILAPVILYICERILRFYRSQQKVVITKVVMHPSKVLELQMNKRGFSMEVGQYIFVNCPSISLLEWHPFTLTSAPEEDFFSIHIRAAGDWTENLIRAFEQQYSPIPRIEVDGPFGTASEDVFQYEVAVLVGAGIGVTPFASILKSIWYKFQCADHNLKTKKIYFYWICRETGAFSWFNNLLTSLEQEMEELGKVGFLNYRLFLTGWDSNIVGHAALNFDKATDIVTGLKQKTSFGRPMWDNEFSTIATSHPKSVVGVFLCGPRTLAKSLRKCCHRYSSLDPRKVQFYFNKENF

NADPH oxidase 1 [3] = biological target: T2, NADPH oxidase 1; experiment: Luminescence-based cell-based dose response assay to identify inhibitors of NADPH oxidase 1 (NOX1).; type: functional
[4] = biological target: T3, Rac GTPase-activating protein 1 (Homo sapiens, UniProt Q9H0H5); experiment: blockers of MgcRacGAP-driven Rac1 GTP hydrolysis – biochemical, ADP Hunter fluorescence, primary and confirmatory, confirmation (AID 624330); type: functional
T3 sequence (Q9H0H5 whole entry): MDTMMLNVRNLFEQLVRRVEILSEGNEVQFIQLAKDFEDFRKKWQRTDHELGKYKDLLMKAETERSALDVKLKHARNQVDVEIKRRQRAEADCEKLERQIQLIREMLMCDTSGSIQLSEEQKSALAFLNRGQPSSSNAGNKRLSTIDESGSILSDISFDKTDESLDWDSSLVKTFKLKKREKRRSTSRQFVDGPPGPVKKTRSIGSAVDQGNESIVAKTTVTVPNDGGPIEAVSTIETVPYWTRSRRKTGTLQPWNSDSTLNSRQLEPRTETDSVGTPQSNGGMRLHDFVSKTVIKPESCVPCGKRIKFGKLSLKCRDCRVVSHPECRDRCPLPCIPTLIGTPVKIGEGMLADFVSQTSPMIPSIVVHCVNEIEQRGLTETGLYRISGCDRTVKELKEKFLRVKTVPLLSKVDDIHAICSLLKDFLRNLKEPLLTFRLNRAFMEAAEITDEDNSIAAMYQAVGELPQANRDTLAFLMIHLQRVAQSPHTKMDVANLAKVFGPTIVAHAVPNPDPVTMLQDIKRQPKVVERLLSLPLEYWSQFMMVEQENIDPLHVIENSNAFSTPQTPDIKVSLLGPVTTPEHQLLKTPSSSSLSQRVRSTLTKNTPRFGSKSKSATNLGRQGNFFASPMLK

Danio rerio = experiment: In Vivo Angiogenesis Dose-Response Confirmation. [Related pubchem assays: 732 (Assay preceding this confirmatory assay.)]; type: functional, organism-based
Cytochrome P450 2C19 = Cytochrome P450 2C19 (Homo sapiens, UniProt P33261); experiment: qHTS Assay for Inhibitors and Substrates of Cytochrome P450 2C19. [Related pubchem assays: 410 ]; type: ADME; details: read-out: Potency
Cytochrome P450 2C9 = Cytochrome P450 2C9 (Homo sapiens, UniProt P11712); details: Potency
[5] = Luminescent dose response cell-based high throughput screening assay for inhibitors of the Janus kinase 2 mutant JAK2V617F. [Related pubchem assays: 1446 (Primary screen.), 1521 (Confirmation assay.), 1486 (Counter screen.)]; type: functional
[6] = THP-1 cell cytotoxicity, dose response, cytotoxicity control for non-replicating M. tuberculosis project (AID 489025); type: functional
[7] = HepG2 cell cytotoxicity, dose response, cytotoxicity control for non-replicating M. tuberculosis project (AID 489018); type: functional; details: Mycobacterium tuberculosis
[8] = Vero E6 cell cytotoxicity, dose response, cytotoxicity control for non-replicating M. tuberculosis project, secondary assay (AID 492998); type: functional, VeroE6; details: Vero C1008
[9] = biological target: T4, Heat shock factor protein 1 (Mus musculus, UniProt P38532); experiment: enhancement of HSF1-driven luciferase signal – cell-based, NIH3T3, luminescence, dose retest, confirmation (AID 435004); type: functional;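 note: stress induced by proteasome inhibitor MG132 added 30 min after compound; luciferase reporter driven by HSF1 response element in NIH3T3 cells; actives raise luminescence as potentiators of the MG132 stress response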
T4 sequence (P38532 whole entry): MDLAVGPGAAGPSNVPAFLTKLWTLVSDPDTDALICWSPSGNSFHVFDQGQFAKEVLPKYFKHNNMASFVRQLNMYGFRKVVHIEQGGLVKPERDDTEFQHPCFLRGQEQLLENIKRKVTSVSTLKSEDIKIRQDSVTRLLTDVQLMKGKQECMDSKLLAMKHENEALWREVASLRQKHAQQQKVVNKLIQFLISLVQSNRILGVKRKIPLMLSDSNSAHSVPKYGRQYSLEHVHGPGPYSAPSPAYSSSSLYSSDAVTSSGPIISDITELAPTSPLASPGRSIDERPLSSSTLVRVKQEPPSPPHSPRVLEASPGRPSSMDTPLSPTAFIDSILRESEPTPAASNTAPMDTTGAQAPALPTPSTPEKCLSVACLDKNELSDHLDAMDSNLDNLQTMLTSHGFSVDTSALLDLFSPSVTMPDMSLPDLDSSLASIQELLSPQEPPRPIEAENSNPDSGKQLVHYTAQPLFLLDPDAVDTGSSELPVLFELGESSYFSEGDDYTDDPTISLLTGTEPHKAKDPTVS

cells = type: functional
[10] = biological target: T5, Replicative DNA helicase DnaB (Mycobacterium tuberculosis, UniProt P9WMR3); experiment: DnaB intein splicing inhibitors, dose response, biochemical, cell-free fluorescence (AID 449749); type: functional
T5 sequence (P9WMR3 whole entry): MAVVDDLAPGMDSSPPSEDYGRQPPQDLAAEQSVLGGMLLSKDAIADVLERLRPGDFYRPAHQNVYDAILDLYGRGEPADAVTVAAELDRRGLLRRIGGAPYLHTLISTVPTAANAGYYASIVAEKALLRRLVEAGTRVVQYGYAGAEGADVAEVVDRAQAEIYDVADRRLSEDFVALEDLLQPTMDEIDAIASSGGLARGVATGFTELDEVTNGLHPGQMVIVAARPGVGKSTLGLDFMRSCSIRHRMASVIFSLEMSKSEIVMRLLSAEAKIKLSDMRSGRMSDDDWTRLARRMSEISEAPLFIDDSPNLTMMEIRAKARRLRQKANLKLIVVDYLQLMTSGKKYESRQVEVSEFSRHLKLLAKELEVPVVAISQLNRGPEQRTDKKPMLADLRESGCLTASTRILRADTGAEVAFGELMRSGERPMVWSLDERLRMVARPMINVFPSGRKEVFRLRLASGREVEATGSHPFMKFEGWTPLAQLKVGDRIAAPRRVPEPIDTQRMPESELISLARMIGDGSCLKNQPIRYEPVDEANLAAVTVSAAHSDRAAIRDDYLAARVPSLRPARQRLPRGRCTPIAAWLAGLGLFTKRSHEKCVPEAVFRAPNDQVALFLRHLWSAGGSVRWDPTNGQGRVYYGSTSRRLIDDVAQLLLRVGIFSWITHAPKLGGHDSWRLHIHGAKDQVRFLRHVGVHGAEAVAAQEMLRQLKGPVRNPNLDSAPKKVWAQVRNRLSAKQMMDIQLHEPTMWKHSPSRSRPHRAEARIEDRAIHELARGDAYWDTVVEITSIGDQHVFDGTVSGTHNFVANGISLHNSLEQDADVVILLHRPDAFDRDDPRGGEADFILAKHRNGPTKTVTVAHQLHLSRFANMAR

Protein RecA = biological target: T6, Protein RecA (Mycobacterium tuberculosis, UniProt P9WHJ3); experiment: Fluorescence Cell-Free Homogeneous Dose Retest to Identify Inhibitors of RecA-Intein Splicing Activity. [Related pubchem assays (depositor defined):AID2097, AID2223, AID489010, AID492950]; type: functional
T6 sequence (P9WHJ3 whole entry): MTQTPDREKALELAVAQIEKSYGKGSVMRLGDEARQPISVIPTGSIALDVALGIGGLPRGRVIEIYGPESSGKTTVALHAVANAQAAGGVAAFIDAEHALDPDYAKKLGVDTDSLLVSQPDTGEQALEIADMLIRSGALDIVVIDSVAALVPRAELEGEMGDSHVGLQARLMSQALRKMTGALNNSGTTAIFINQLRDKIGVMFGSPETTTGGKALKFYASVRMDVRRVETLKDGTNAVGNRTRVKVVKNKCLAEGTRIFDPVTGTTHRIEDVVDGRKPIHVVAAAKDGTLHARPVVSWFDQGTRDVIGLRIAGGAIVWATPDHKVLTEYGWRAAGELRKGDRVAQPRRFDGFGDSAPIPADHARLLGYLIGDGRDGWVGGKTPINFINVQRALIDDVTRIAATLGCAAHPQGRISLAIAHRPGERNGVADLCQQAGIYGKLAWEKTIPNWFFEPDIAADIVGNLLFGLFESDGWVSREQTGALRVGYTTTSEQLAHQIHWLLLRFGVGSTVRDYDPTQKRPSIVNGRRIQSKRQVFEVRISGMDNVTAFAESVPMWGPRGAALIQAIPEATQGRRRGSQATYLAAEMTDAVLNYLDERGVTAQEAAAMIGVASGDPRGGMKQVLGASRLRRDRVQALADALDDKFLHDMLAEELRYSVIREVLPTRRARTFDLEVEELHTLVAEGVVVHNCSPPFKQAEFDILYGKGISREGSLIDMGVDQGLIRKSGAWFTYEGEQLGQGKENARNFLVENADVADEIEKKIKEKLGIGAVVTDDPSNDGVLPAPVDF

[11] = Fluorescence-based cell-based high throughput dose response assay for inhibitors of the interaction of nucleotide-binding oligomerization domain containing 2 (NOD2) and the receptor-interacting serine-threonine kinase 2 (RIPK2).; type: functional; details: Homo sapiens
Paired box protein Pax-8 = Paired box protein Pax-8 (Homo sapiens, UniProt Q06710); experiment: PAX8 transcriptional activity inhibition in RMG-I – RMG-I cells, luciferase, cherry-pick, dose response (AID 687027); type: functional, cell-based;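 note: luciferase reporter driven by Pax8 target thyroperoxidase promoter measured by SteadyGlo luminescence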
[12] = general cell-killing toxicity readout – plate reader, dry powder samples, cytotoxicity control for PAX8 inhibitor project, dose response (AID 743021); type: functional, cell-based
[13] = NIH-3T3 fibroblast cytotoxicity, dose response, cytotoxicity control, cell-based, fluorescence, Alamar Blue, secondary assay (AID 2327); type: functional;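 note: NIH-3T3 mouse fibroblasts cultured with fluconazole at 8 µg/mL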
[14] = fluconazole-exposed Candida albicans growth modulators – fluorescence, retest, confirmation (AID 2467); type: functional, cell-based
[15] = biological target: Voltage-gated inwardly rectifying potassium channel KCNH2 (Homo sapiens, UniProt Q12809); experiment: concentration-dependent hERG rescue from blockers – cell-based, thallium flux, dose response (AID 2121); type: ADME
Estrogen receptor beta [16] = biological target: T1, Estrogen receptor beta
[17] = biological target: DNA dC->dU-editing enzyme APOBEC-3A (Homo sapiens, UniProt P31941); experiment: Dose Response confirmation of small molecule APOBEC3A DNA Deaminase Inhibitors via a fluorescence-based single-stranded DNA deaminase assay. [Related pubchem assays (depositor defined):AID493011, AID493024]; type: functional
[18] = biological target: DNA dC->dU-editing enzyme APOBEC-3G (Homo sapiens, UniProt Q9HC16); type: functional;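 note: Dose-response counterscreen measuring inhibition of APOBEC3G DNA deaminase activity, run while confirming APOBEC3A inhibitors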
[19] = biological target: Sphingosine 1-phosphate receptor 2 (Homo sapiens, UniProt O95136); experiment: Dose Response Cell Based Assay for Agonists of the S1P2 Receptor of Purchased Analogues. [Related pubchem assays: 729, 843, 854, 736 ]; type: functional
Galanin receptor type 2 = Galanin receptor type 2 (Homo sapiens, UniProt O43603); experiment: Dose Response cell-based high-throughput screening assay to identify antagonists of galanin receptor 2 (GALR2). [Related pubchem assays: 828, 866 ]; type: functional
Chain of Galanin receptor type 2 (O43603 whole entry): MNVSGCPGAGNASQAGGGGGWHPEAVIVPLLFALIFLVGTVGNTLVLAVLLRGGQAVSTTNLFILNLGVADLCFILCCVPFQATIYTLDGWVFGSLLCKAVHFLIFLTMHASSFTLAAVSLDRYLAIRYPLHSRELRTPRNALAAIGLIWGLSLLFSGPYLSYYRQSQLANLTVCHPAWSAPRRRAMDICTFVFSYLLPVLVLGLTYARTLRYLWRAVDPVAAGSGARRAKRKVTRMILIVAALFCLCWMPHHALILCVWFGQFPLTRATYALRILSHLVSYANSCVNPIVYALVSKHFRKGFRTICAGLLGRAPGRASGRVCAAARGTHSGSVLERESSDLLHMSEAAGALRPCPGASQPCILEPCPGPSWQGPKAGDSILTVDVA

T1 sequence (Q92731 whole entry): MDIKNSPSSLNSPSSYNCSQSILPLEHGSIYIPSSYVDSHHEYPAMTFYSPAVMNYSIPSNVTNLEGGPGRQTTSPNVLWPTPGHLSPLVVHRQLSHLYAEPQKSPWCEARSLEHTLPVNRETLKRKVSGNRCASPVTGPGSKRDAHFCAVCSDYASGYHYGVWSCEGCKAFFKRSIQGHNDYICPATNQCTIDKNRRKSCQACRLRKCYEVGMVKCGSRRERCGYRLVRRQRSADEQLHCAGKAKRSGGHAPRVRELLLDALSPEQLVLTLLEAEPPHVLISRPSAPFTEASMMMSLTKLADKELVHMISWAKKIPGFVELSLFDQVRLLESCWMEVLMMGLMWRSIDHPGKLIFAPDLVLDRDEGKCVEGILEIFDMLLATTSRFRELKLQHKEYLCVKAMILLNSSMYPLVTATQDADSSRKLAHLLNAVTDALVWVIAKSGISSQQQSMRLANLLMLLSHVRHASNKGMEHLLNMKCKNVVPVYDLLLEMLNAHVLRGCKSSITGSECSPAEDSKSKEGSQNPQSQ
Chain of Cytochrome P450 2C19 (P33261 whole entry): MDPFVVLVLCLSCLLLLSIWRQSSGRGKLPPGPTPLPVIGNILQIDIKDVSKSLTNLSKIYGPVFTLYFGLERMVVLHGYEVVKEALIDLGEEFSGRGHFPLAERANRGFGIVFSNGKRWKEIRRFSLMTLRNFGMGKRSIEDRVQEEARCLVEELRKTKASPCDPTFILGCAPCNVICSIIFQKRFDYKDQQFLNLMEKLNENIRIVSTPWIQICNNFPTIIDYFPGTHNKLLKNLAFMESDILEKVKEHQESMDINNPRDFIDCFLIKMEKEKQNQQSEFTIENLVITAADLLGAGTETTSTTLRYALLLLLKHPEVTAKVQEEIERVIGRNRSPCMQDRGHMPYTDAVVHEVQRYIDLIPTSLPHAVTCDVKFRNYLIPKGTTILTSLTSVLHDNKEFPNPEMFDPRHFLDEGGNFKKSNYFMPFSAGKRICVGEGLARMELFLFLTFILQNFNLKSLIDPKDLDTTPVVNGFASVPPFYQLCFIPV
Chain of DNA dC->dU-editing enzyme APOBEC-3G (Q9HC16 whole entry): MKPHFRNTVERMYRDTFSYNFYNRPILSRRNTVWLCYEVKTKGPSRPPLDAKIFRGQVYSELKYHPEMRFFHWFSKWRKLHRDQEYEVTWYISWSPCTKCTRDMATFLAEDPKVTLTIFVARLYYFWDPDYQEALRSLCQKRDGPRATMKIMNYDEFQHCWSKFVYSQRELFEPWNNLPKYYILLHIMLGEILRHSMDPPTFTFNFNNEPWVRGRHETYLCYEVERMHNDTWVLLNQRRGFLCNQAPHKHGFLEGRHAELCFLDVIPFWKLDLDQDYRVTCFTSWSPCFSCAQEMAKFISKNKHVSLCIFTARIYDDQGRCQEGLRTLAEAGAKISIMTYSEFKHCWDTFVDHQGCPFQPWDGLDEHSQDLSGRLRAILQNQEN
Chain of Voltage-gated inwardly rectifying potassium channel KCNH2 (Q12809 whole entry): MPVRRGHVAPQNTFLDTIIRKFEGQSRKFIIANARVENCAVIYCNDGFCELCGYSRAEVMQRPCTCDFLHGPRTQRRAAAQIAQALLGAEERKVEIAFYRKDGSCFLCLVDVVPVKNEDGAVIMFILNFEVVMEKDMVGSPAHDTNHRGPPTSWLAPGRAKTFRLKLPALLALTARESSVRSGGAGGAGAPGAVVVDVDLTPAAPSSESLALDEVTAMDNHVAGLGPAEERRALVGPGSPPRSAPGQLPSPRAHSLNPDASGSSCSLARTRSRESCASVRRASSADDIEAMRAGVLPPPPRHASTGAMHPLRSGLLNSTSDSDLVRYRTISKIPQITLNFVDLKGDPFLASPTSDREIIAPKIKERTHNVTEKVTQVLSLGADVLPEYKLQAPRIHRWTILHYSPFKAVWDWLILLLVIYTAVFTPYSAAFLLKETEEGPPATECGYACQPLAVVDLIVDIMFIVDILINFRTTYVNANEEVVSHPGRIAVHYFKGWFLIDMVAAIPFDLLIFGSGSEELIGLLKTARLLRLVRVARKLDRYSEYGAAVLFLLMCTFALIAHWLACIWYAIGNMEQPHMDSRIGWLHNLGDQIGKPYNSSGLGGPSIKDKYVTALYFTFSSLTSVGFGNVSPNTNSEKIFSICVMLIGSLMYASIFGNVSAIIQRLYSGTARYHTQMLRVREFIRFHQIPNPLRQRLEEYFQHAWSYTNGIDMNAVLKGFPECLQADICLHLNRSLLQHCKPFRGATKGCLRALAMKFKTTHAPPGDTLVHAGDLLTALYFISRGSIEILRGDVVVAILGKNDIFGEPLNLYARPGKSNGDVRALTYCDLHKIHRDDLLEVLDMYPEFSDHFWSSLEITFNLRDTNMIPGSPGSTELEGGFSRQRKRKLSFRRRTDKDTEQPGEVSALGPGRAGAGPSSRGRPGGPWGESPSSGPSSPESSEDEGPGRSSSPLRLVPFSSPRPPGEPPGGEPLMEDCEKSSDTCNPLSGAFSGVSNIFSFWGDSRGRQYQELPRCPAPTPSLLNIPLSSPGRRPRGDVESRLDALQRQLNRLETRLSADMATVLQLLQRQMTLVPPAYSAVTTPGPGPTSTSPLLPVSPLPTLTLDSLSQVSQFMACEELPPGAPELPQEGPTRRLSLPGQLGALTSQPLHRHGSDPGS
Chain of Paired box protein Pax-8 (Q06710 whole entry): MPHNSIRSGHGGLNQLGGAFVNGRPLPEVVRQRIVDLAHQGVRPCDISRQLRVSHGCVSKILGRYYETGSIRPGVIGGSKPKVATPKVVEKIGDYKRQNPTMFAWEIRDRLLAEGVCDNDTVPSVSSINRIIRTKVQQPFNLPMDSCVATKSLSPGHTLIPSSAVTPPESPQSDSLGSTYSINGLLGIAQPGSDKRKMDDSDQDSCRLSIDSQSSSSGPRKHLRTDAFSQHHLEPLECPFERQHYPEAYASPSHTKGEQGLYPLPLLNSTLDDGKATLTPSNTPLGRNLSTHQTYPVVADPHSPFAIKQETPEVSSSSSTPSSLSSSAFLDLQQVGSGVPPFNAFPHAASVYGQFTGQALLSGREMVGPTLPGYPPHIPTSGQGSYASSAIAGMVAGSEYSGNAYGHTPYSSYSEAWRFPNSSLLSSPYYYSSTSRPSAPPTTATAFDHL
Chain of Cytochrome P450 2C9 (P11712 whole entry): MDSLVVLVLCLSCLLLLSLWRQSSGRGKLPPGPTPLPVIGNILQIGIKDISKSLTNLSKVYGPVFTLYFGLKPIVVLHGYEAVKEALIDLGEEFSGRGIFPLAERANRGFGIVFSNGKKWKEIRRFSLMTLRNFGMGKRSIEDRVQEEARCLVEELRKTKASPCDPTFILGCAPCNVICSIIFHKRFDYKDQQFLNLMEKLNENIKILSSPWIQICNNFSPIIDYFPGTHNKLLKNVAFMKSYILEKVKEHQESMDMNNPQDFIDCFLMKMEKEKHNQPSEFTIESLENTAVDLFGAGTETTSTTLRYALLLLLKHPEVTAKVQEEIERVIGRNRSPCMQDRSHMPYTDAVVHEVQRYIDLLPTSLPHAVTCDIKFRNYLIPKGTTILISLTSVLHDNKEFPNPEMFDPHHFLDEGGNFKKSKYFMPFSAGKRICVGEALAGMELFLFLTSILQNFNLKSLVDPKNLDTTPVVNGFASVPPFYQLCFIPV
Chain of DNA dC->dU-editing enzyme APOBEC-3A (P31941 whole entry): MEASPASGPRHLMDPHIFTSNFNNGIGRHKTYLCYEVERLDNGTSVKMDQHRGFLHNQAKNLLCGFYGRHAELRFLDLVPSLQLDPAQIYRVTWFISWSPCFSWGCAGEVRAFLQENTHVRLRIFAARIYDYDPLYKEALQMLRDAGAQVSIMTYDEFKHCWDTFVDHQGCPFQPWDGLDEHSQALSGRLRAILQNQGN
Chain of Sphingosine 1-phosphate receptor 2 (O95136 whole entry): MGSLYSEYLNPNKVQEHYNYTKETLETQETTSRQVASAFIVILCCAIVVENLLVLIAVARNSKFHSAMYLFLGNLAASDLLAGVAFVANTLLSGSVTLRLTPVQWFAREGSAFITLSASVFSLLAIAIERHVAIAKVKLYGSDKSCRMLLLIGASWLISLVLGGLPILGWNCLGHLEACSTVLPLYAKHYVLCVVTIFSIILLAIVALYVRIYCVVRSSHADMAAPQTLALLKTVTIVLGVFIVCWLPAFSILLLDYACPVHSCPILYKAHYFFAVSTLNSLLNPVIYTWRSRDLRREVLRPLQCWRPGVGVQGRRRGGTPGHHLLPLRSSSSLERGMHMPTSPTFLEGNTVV

COc1ccc(NC(=O)Nc2ccc(N(C)C)cc2)cc1
IC50 (Estrogen receptor beta [1]): 14.4 µM (not active)
IC50 (NADPH oxidase 1 [2]): 0.432 µM (active)
IC50 (NADPH oxidase 1 [3]): 0.156 µM (active)
IC50 [4]: 23.5 µM (active)

O=C1Nc2ccc(F)cc2/C1=C1/Nc2ccc(Br)cc2C1=O
IC50 (Danio rerio): 0.35 µM (not active)

CC(=O)[C@H]1[C@H]2[C@H](C(=O)[C@@H]3OC[C@H]2O3)[C@@H]2c3ccccc3C=CN12
AC50 (Cytochrome P450 2C19): 31.6 µM (inconclusive)
AC50 (Cytochrome P450 2C9): 31.6 µM (inconclusive)

Cc1nc2c(=O)n(C)c(=O)n(C)c2nc1Cl
IC50 [5]: 1.37 µM (active)
CC50 [6]: 12.1 µM (active)
CC50 [7]: 10.6 µM (active)
CC50 [8]: 7.41 µM (active)
EC50 [9]: 14.3 µM (active)
IC50 (cells): 6.22 µM (active)
AC50 [10]: 17.3 µM (active)
EC50 (Protein RecA): 8.48 µM (active)
IC50 [11]: 4.73 µM (active)
AC50 (Paired box protein Pax-8): 8.88 µM (active)
AC50 [12]: 32.9 µM (active)

O=C(Nc1nc(=O)c2ccccc2s1)c1ccc(Cl)cc1
EC50 [13]: > 150 µM (inactive)
EC50 [14]: > 38 µM (not active)
EC50 [15]: 0.84 µM (active)

O=C(Cc1cccs1)Nc1nnc(Cc2ccccc2)s1
IC50 (Estrogen receptor beta [16]): 1.7 µM (active)
IC50 (Estrogen receptor beta [1]): 14.4 µM (not active)
IC50 [17]: 12 µM (active)
IC50 [18]: 25.3 µM (active)

Cc1sc2ncn(CC(=O)c3cc(C)n(Cc4ccccc4)c3C)c(=O)c2c1C
EC50 [19]: > 30 µM (not active)

O=C(/C=C/c1ccc(Cl)cc1)NC(=S)Nc1ccc(NC(=O)c2ccco2)cc1
IC50 (Galanin receptor type 2): 6.76 µM (active)
